Reference: patent US8927502B2, “Embedded chimeric peptide nucleic acids and uses thereof” (ICahn School of Medicine at Mount Sinai, priority 2010, dated 2015)
Read-outs that look alike come from different tables or passages of the source.

Key:
[1] = system: human γ-globin gene in MBC-βYAC cells; assay: γ-globin expression by quantitative RT-PCR in β-YAC mouse bone marrow cells; assay type: cell-based
Source text: To test this, a line of mouse bone marrow cells engineered to carry a yeast artificial chromosome that contains the complete human β-like globin locus (β-YAC) was used.
After treatment, cells were harvested and mRNA was extracted for reverse transcriptase (RT)-quantitative polymerase chain reaction (qPCR) using two different sets of published primers that recognize sequences within the γ-globin gene.
Total RNA from β-YAC MBCs were isolated with a RNeasy micro kit (Qiagen) following the manufacturer's instructions. RNA concentrations were quantified using a Nanodrop. Reverse transcription of RNA was performed with Promega's Reverse Transcription System and expression levels were quantified using a Quantitect SYBR Green PCR kit from Qiagen in conjunction with an ABI PRISM 7900HT and SDS software [see Lohmann, F. & Bieker, J. J. supra] Q-PCR results for globin expression were normalized by 2−[(Ct γ−Ct β)−(Ct γ [no PNA]−Ct β [noPNA])][see Livak, K. J. & Schmittgen, T. D., Analysis of relative gene expression data using real-time quantitative PCR and the 2(−Delta Delta C(T)) Method. Methods 25, 402-408 (2001)] divided by the PNA incorporation efficiency (determined from the live cell image data). Each reaction was performed in triplicate.

[2] = system: γ-globin expression in human mobilized peripheral blood CD34+ cells; details: treated at end of day 2, harvested 16 hours later
Description: (§1) K562 cells served as a positive control. FIG. 13(c) contains dot plots and histograms from toxicity analysis by flow cytometry of cultured CD34+ cells after PNA treatment.
(§2) Purified CD34+ cells were cultured, treated at the end of day 2 with the various PNA chimeras or with no PNA, and harvested 16 hours later for analysis.

[3] = system: γ-globin protein in human peripheral blood CD34+ cells
Description: as §1, §2

[4] = system: γ-globin protein in MBC-βYAC cells; details: not detectable in untreated cells
Description: K562 cells were also stained and served as a positive control for γ-globin protein detection (arrowheads).
At 48 hours post-PNA treatment, 100K MBC-βYAC cells were collected and spun onto frosted slides (Fisher) in a Shandon Cytospin 2 centrifuge at 500 rpm for 5 minutes. All steps were carried out at room temperature except when indicated. Cells were fixed for 4 minutes in ice-cold acetone/methanol (1:1) on ice and rinsed twice with 2% BSA/PBS. Samples were then incubated with blocking solution (10% FCS, 0.05% NP40/PBS) for 30 minutes followed by a two-hour incubation with hemoglobin γ antibody (Santa Cruz Biotechnology, sc-21756) diluted 1:100 in blocking solution. Slides were washed 3× with 2% BSA, 0.05% NP40/PBS and then incubated with goat anti-mouse secondary antibody conjugated to Alexa 568 (Invitrogen) at a 1:50 dilution for one hour in a dark chamber. Slides were then washed 3× with 2% BSA/PBS with a final rinse in PBS and mounted with DAPI-containing Vectashield. DAPI and Alexa568 images were visualized on a Zeiss spinning disc confocal microscope (PerkinElmer).

[5] = system: PNA78 target sequence/minimal SV40 promoter luciferase reporter in K562 cells; assay: Luciferase reporter with four repeats of PNA78 target sequence and minimal SV40 promoter in K562 cells; assay type: cell-based, human
[6] = system: PNA78 target sequence/minimal SV40 promoter luciferase reporter in 293T cells; assay: Luciferase reporter with four repeats of PNA78 target sequence and minimal SV40 promoter in 293T cells; assay type: cell-based
[7] = system: γ-globin promoter luciferase reporter; assay type: cell-based, human
Description: The γ-globin reporter contained a 1.5 Kb Human HS2 fragment upstream of the −299 to +37 human γ-globin promoter in Promega's (Madison, Wis.) pGL2 Basic plasmid. [See Caterina, J. J., Donze, D., Sun, C. […] Nucleic Acids Res 22, 2383-2391 (1994).]
Transfection of K562 cells was performed using the DMRIE lipofection method (Gibco, Invitrogen, Carlsbad, Calif.). K562 cells were counted and 1×10^5 cells were resuspended in 0.1 mL OPTI-MEM in a 12-well plate (BD Falcon, Franklin Lakes, N.J.). Experiments were all done in triplicates. 1.5 ng Renilla plasmid (Promega Corporation. Madison, Wis.) and 0.5 μg reporter construct were added to each well. After 2 hours of transfection, PNAs were added to a final concentration of 10 μM. 2 hours later, 1 ml RPMI and a final concentration of 10% FBS were added to each well. This was followed by incubation at 37° C. for 36 hours.
36 hours after PNA addition, K562 cells were collected by centrifugation at 2500 rpm. Media was discarded and cells were washed once with 1×PBS and resuspended in 250 μL 1× passive lysis buffer (PLB) (Promega). Tubes that contained cells were put on a rocker platform for 10 minutes at room temperature. Cells were then centrifuged at 13000 rpm and resuspended in 200 μL 1×PLB, loaded on a 96 well plate and further analyzed with a Turner Biosystem Microplate Luminometer. […] Mol Cell Biol 27, 8547-8560 (2007).] Luciferase values were divided by the Renilla value from the same sample after it had been divided by 1000. To minimize the differences in between loading, each sample was loaded in three different wells and the average of three was calculated.

[8] = system: γ-globin promoter region −299 to +37; details: PNA 50 uM, overnight at 37° C.
Description: To further confirm the observation in the magnetic-pull down assay, permanganate (KMnO4) probing of the PNA78/DNA interaction in solution was carried out (FIG. 1(c)). […] Methods Mol Biol 208, 91-109 (2002)], 1 ng of a singly ^32P-end-labeled, gel purified RsaI/XhoI fragment derived from the p250 plasmid that contains the γ-globin promoter region −299 to +37 was incubated in a volume of 15 μL with a final concentration of 10 mM Tris and 1 mM EDTA for 30 minutes at 37° C. PNA was added at a final concentration of 50 uM for further incubation overnight at 37° C. 1 uL 20 mM KMnO4 was added to the reaction, and after 15 s 10 uL stop buffer (1.5 M sodium acetate, 1 M 2-mercaptoethanol, Ph 7.0) was added. 2.5× vol of 96% ethanol was added and the DNA collected by centrifugation at 13000 rpm for 15 minutes. The supernatant was removed and the DNA pellet dissolved in 100 uL 10% piperidine followed by incubation at 90° C. for 20 minutes. The lympholized DNA sample was resuspended in 8 μL FA buffer (80% deionized fomamide, 10 mM EDTA, 0.25% xylenecyanol FF, 0.25% bromphenol blue). DNA was denatured at 90° C. for 2 minutes, chilled on ice, and then electrophoresed on thin 10% polyacrylamide gels containing 7 M urea. The dried gel was then exposed for autoradiography.

[9] = system: human γ-globin promoter DNA oligonucleotide (wild type or mutated target sequence); details: for binding of PNA to its target DNA oligo (bound/input): wild type vs mutant oligo, PNA 0-10 μM, 37° C. overnight
Description: FIG. 1 depicts in vitro target binding specificity of four PNAs designed to interact with the human γ-globin promoter. […] The relative location of known promoter elements within this region is also indicated. Orientation of the PNA molecule relative to the promoter sequence is shown above, with a lys at its 3′-end and a biotin molecule (circle) attached at the 5′-end. In FIG. 1(b), different concentrations of PNAs (0-10 μM) were incubated with a constant amount of radioactively labeled DNA oligonucleotide (10 nM) containing either the wild type (wt) or mutated (mut) target sequence followed by incubation with streptavidin Dynabeads and collection with a magnetic particle concentrator. Bound/input ratios were obtained after scintillation counter analysis. […] The A+G sequence ladder is shown in lane 1, along with the nucleotide sequence of the γ-globin promoter aligned on the left.
A novel assay was developed to monitor specific binding of PNA molecules to their cognate DNA site (FIG. 1(b)). 2 ng of ^32P-labelled double-stranded DNA oligonucleotide (designed at regions of the γ-promoter centered at each of the four PNA target sites) was incubated with various molar excess (0× to 1000×) of PNA at 37° C. overnight in a final volume of 15 uL with 10 mM Tris and 1 mM of EDTA. The resultant material was incubated with equal amount of Dynabeads M280-streptavidin (DYNAL biotech) for […] at 25° C. Beads had been prepared by washing twice with BW buffer (10 mM Tris, pH7.5, 1 mM EDTA, 2.0M NaCl). The beads were pulled down with a Dynal MPC-S magnetic particle concentrator and washed twice with BW buffer. Samples were finally suspended in 50 uL BW buffer, and radioactivity was counted for 10 minutes in a scintillation counter to yield the average counts per minute (cpm) taken for each sample, which was then divided by the cpm of the input (1 uL of the radio-labeled oligo).

[10] = system: endogenous γ-globin promoter; assay: Chromatin association assay in K562 cells (streptavidin bead pull-down, quantitative PCR); assay type: cell-based, human; details: 10 μM in K562 cells
Source text: To determine whether PNA78 can interact with its target site in vivo, a modification of the chromatin immunoprecipitation assay was developed. […] Along with the “no addition” negative control, a variant of PNA78 that contain two point mutations (MUT PNA78) was synthesized and used it as an additional negative control along with a “TAT alone” control.
This assay incorporates elements of chromatin [see Siatecka, M., Xue, L. & Bieker, J. J., Sumoylation of EKLF promotes transcriptional repression and is involved in inhibition of megakaryopoiesis, Mol Cell Biol 27, 8547-8560 (2007)] and biotinylated protein [see Viens, A., Mechold, U., Lehrmann, H., Harel-Bellan, A. & Ogryzko, V., Use of protein biotinylation in vivo for chromatin immunoprecipitation. Anal Biochem 325, 68-76 (2004)] immunoprecipitation protocols. PNA 78/TAT or mutant (MUT) PNA 78/TAT were added to 10^7 K562 cells to a final concentration of 10 μM. After […], a portion of the cells were analyzed and quantified for PNA incorporation efficiency by confocal analysis of live cells (as above), and the rest were harvested and cross-linked with 0.4% formaldehyde (Fisher Scientific, F79-500) for 10 minutes in room temperature then quenched by addition of glycine in the final concentration of 0.125 M for another 10 minutes. […]
After 16 hours of incubation of K562 cells, any formed PNA-chromatin complex was cross-linked and cells were disrupted and chromatin was sheared by sonication. […] The DNA was purified for sequence identification by quantitative PCR. To more precisely quantitate the extent of PNA entry into the nucleus, a portion of the cells from each treatment was collected, stained with the DRAQ5 live-cell nuclear stain, attached to chamber-slides, and inspected under confocal microscopy to compare PNA and TAT nuclear entry efficiency.
One microliter of DNA was used in 20 μl of quantitative PCR reaction using a Quantitect SYBR Green PCR kit from Qiagen (Valenica, Calif.) and the presence of γ-globin promoter sequences was quantified with an ABI PRISM 7900HT and SDS software. […]

[11] = wild type γ-promoter, 10 μM, 36 hours

H2N-CGSDALDDFDLDML-Biotin-O-TACTCTAAGACTATT-O-YGRKKRRQRRR [ATF-Bio/PNA78/TAT]
increase of γ-globin levels/expression ([1]; 16 hours after PNA treatment, in comparison to cells treated with PNA78/TAT alone): 7 fold | increase of γ-globin expression compared to untreated cells [2]: ~5 fold | γ-globin protein accumulation [3]: γ-globin protein accumulation solely in those cells | cells positive for γ-globin protein ([3]; visual analysis of ≧100 cells per field): 22% | γ-globin protein expression in the cytoplasm [4]: levels approaching that seen in uninduced K562 cells

Bio-OO-DFDLDMLGDFDLDMLG-O-TACTCTAAGACTATT-O-YGRKKRRQRRR [VP2/PNA78/TAT]
luciferase activity increase compared to non-treated cells [5]: 2.3 fold | luciferase activity increase [6]: not observed at all | effect on activity of γ-globin luciferase reporter (superactivation) [7, 11]: little effect beyond that seen with PNA78/TAT

Biotin-OO-TACTCTAAGACTATT-O-k [PNA78]
binding to target region within the γ-globin promoter fragment [8]: binds specifically to its target region | discrimination between wild type and mutant oligos [9]: ~25 fold | binding of PNA to its target DNA oligo (bound/input) [9]: bound their target DNA oligo in proportion to their input

Biotin-OO-GGCTATTGGTCAAGGC-k [PNA116]
binding to the mutant DNA target [9]: bound to the mutant DNA target to an unacceptable extent | binding of PNA to its target DNA oligo (bound/input) [9]: bound their target DNA oligo in proportion to their input

Bio-OO-CGSDALDDFDLDML-O-TACTCTAAGACTATT-O-YGRKKRRQRRR [Bio-ATF/PNA78/TAT]
ability to activate γ-globin expression ([1]; biotin at the extreme 5′ end): precluded its ability to activate γ-globin expression

Biotin-OO-TACTCTAAGACTATT-O-PKKKRKV [PNA78/NLS]
effect on activity of γ-globin luciferase reporter (superactivation) [7, 11]: mild

Biotin-OO-TACTCTAAGACTATT-O-YGRKKRRQRRR [PNA78/TAT]
interaction with target sequence within the γ-globin promoter (quantitative PCR of precipitated DNA) [10]: greater than the non-specific MUT PNA78 and TAT alone | effect on activity of γ-globin luciferase reporter (superactivation) [7]: stronger | superactivation of γ-promoter reporter mutated at the PNA78 target site [7]: negated its ability to be superactivated

YGRKKRRQRRR [TAT alone, reference compound]
interaction with target sequence within the γ-globin promoter (quantitative PCR of precipitated DNA) [10]: not higher than the ‘no addition’ control | effect on activity of γ-globin luciferase reporter (superactivation) [7, 11]: no effect

Biotin-OO-TACTATAAAACTATT-O-YGRKKRRQRRR [MUT PNA78/TAT]
interaction with target sequence within the γ-globin promoter (quantitative PCR of precipitated DNA) [10]: not higher than the ‘no addition’ control

Biotin-OO-TGTGGAACTGCTGAA-O-k [PNA7]
binding of PNA to its target DNA oligo (bound/input) [9]: did not discriminate or bind well

Biotin-OO-GAGTTTAGCCAGG-O-k [PNA150]
binding of PNA to its target DNA oligo (bound/input) [9]: did not discriminate or bind well
